Laboratory results taken from patent US12459922B2 (Gilead Sciences, Inc., priority 2022, dated 2025).

Test system: endogenous cellular STAT1 (phosphorylated at Tyr701) in NCI-H1373 cells
Assay: Phospho-STAT1 (Tyr701) LANCE Ultra TR-FRET Detection Assay
Format: cell-based
Conditions: Homo sapiens, NCI-H1373, 48 h, phospho-STAT1 (Tyr701) induction, read-out: NH1373 pSTAT1 EC50

Row | Structure (SMILES) | EC50 [nM]
1 | O=c1[nH]ncc(N[C@@H](CO)CCCn2ccc3cc(-c4ncc(Cl)cn4)c(F)cc3c2=O)c1C(F)(F)F [Example 166, 6-(5-chloropyrimidin-2-yl)-7-fluoro-2-[(4R)-5-hydroxy-4-[[6-oxo-5-(trifluoromethyl)-1H-pyridazin-4-yl]amino]pentyl]isoquinolin-1-one] | 128
2 | O=c1[nH]ncc(N[C@H](CCCn2ccc3cc(-c4ccc(C(F)(F)F)cn4)c(F)c(F)c3c2=O)COC(F)F)c1C(F)(F)F [Example 407, (R)-2-(5-(difluoromethoxy)-4-((6-oxo-5-(trifluoromethyl)-1,6-dihydropyridazin-4-yl)amino)pentyl)-7,8-difluoro-6-(5-(trifluoromethyl)pyridin-2-yl)isoquinolin-1(2H)-one] | 1.99
3 | O=c1[nH]ncc(N[C@H](CCCn2ccc3cc(-c4cnc(C(F)F)cn4)c(F)cc3c2=O)COC(F)F)c1C(F)(F)F [Example 424, (R)-2-(5-(difluoromethoxy)-4-((6-oxo-5-(trifluoromethyl)-1,6-dihydropyridazin-4-yl)amino)pentyl)-6-(5-(difluoromethyl)pyrazin-2-yl)-7-fluoroisoquinolin-1(2H)-one] | 3.11
4 | Cc1nnc([C@@H](CCCn2ccc3cc(-c4ncc(C(F)(F)F)cn4)c(F)c(F)c3c2=O)Nc2cn[nH]c(=O)c2C(F)(F)F)o1 [Example 474, 7,8-difluoro-2-[(4R)-4-(5-methyl-1,3,4-oxadiazol-2-yl)-4-[[6-oxo-5-(trifluoromethyl)-1H-pyridazin-4-yl]amino]butyl]-6-[5-(trifluoromethyl)pyrimidin-2-yl]isoquinolin-1-one] | 14.8
5 | Nc1nc(-c2cc3ccn(CCC[C@@H]4CCCN4c4cn[nH]c(=O)c4C(F)(F)F)c(=O)c3cc2F)ncc1C(F)(F)F [Example 121, (S)-6-(4-amino-5-(trifluoromethyl)pyrimidin-2-yl)-7-fluoro-2-(3-(1-(6-oxo-5-(trifluoromethyl)-1,6-dihydropyridazin-4-yl)pyrrolidin-2-yl)propyl)isoquinolin-1(2H)-one] | 5.16
6 | [2H]C([2H])([2H])OC[C@@H](CCCn1cnc2cc(-c3ncc(C(F)F)c(N)n3)c(F)cc2c1=O)Nc1cn[nH]c(=O)c1C(F)(F)F [Example 433] | 15.6
7 | C[C@@H](CC(O)Cn1ccc2cc(-c3ncc(C(F)(F)F)cn3)c(F)cc2c1=O)Nc1cn[nH]c(=O)c1C(F)(F)F (stereo partly drawn) [Example 478, 7-fluoro-2-[(4S)-2-hydroxy-4-[[6-oxo-5-(trifluoromethyl)-1H-pyridazin-4-yl]amino]pentyl]-6-[5-(trifluoromethyl)pyrimidin-2-yl]isoquinolin-1-one] | 5.25
8 | [2H]C([2H])([2H])OC[C@@H](CCCn1ccc2cc(-c3ncc(C(F)F)cn3)c(F)cc2c1=O)Nc1cn[nH]c(=O)c1C(F)(F)F [Example 428, 6-[5-(difluoromethyl)pyrimidin-2-yl]-7-fluoro-2-[(4R)-4-[[6-oxo-5-(trifluoromethyl)-1H-pyridazin-4-yl]amino]-5-(trideuteriomethoxy)pentyl]isoquinolin-1-one] | 4.17
9 | C[C@@H](CCCn1ccc2cc(-c3nc4cnccn4n3)c(F)cc2c1=O)Nc1cn[nH]c(=O)c1C(F)(F)F [Example 334, (S)-6-([1,2,4]triazolo[1,5-a]pyrazin-2-yl)-7-fluoro-2-(4-((6-oxo-5-(trifluoromethyl)-1,6-dihydropyridazin-4-yl)amino)pentyl)isoquinolin-1(2H)-one] | 24.1
10 | O=c1[nH]ncc(N2C[C@H](F)C[C@H]2CCCn2ccc3cc(-c4ncc(C(F)(F)F)cn4)c(F)cc3c2=O)c1C(F)(F)F [Example 140, 7-fluoro-2-[3-[(2R,4R)-4-fluoro-1-[6-oxo-5-(trifluoromethyl)-1H-pyridazin-4-yl]pyrrolidin-2-yl]propyl]-6-[5-(trifluoromethyl)pyrimidin-2-yl]isoquinolin-1-one] | 585
11 | Nc1nc(-c2cc3ncn(C[C@@H]4CCC[C@H](Nc5cn[nH]c(=O)c5C(F)(F)F)C4)c(=O)c3cc2F)ncc1Cl [Example 261, 7-(4-amino-5-chloropyrimidin-2-yl)-6-fluoro-3-(((1R,3S)-3-((6-oxo-5-(trifluoromethyl)-1,6-dihydropyridazin-4-yl)amino)cyclohexyl)methyl)quinazolin-4(3H)-one] | 6.1
12 | O=c1[nH]ncc(N2C[C@@H](O)C[C@H]2CCCn2ccc3cc(-c4ncc(C(F)(F)F)cn4)c(F)cc3c2=O)c1C(F)(F)F [Example 138, 7-fluoro-2-(3-((2R,4S)-4-hydroxy-1-(6-oxo-5-(trifluoromethyl)-1,6-dihydropyridazin-4-yl)pyrrolidin-2-yl)propyl)-6-(5-(trifluoromethyl)pyrimidin-2-yl)isoquinolin-1(2H)-one] | 55.5
13 | O=c1[nH]ncc(N[C@H](CCCn2ccc3cc(-c4cnc(N5CCNCC5)cn4)c(F)cc3c2=O)COC(F)F)c1C(F)(F)F [Example 423, (R)-2-(5-(difluoromethoxy)-4-((6-oxo-5-(trifluoromethyl)-1,6-dihydropyridazin-4-yl)amino)pentyl)-7-fluoro-6-(5-(piperazin-1-yl)pyrazin-2-yl)isoquinolin-1(2H)-one] | 446
14 | O=c1[nH]ncc(N[C@H]2CCC[C@@H](Cn3c(=O)[nH]c4cc(-c5ncc(C(F)(F)F)cn5)c(F)cc4c3=O)C2)c1C(F)(F)F [Example 281, 6-fluoro-3-(((1R,3S)-3-((6-oxo-5-(trifluoromethyl)-1,6-dihydropyridazin-4-yl)amino)cyclohexyl)methyl)-7-(5-(trifluoromethyl)pyrimidin-2-yl)quinazoline-2,4(1H,3H)-dione] | 2.87
15 | Nc1nc(-c2cc3ncn(CCC[C@@H](Nc4cn[nH]c(=O)c4C(F)(F)F)C4CC4)c(=O)c3cc2F)ncc1C(F)F [Example 462, (R)-7-(4-amino-5-(difluoromethyl)pyrimidin-2-yl)-3-(4-cyclopropyl-4-((6-oxo-5-(trifluoromethyl)-1,6-dihydropyridazin-4-yl)amino)butyl)-6-fluoroquinazolin-4(3H)-one] | 27.6
16 | O=c1[nH]ncc(N[C@H](CCCn2cnc3cc(-c4ccc(C(F)F)cn4)c(F)cc3c2=O)COC(F)F)c1C(F)(F)F [Example 402, (R)-3-(5-(difluoromethoxy)-4-((6-oxo-5-(trifluoromethyl)-1,6-dihydropyridazin-4-yl)amino)pentyl)-7-(5-(difluoromethyl)pyridin-2-yl)-6-fluoroquinazolin-4(3H)-one] | 3.13
17 | COc1ncc(-c2cc3ccn(C[C@@H]4CCC[C@H](Nc5cn[nH]c(=O)c5C(F)(F)F)C4)c(=O)c3cc2F)nc1N [Example 263, 6-(6-amino-5-methoxypyrazin-2-yl)-7-fluoro-2-(((1R,3S)-3-((6-oxo-5-(trifluoromethyl)-1,6-dihydropyridazin-4-yl)amino)cyclohexyl)methyl)isoquinolin-1(2H)-one] | 122
18 | Cc1cnc(N)nc1-c1cc2ccn(CCC[C@H](C)Nc3cn[nH]c(=O)c3C(F)(F)F)c(=O)c2c(F)c1F [Example 80, (S)-6-(2-amino-5-methylpyrimidin-4-yl)-7,8-difluoro-2-(4-((6-oxo-5-(trifluoromethyl)-1,6-dihydropyridazin-4-yl)amino)pentyl)isoquinolin-1(2H)-one] | 479
19 | CN(C)C[C@@H](CCCn1ccc2cc(-c3ncc(C(F)(F)F)cn3)c(F)cc2c1=O)Nc1cn[nH]c(=O)c1C(F)(F)F [Example 473, 2-[(4R)-5-(dimethylamino)-4-[[6-oxo-5-(trifluoromethyl)-1H-pyridazin-4-yl]amino]pentyl]-7-fluoro-6-[5-(trifluoromethyl)pyrimidin-2-yl]isoquinolin-1-one] | 969
20 | Nc1nc(-c2cc3ncn(CCC[C@@H](Nc4cn[nH]c(=O)c4C(F)(F)F)C4CC4)c(=O)c3cc2F)ncc1Cl [Example 461, (R)-7-(4-amino-5-chloropyrimidin-2-yl)-3-(4-cyclopropyl-4-((6-oxo-5-(trifluoromethyl)-1,6-dihydropyridazin-4-yl)amino)butyl)-6-fluoroquinazolin-4(3H)-one] | 15.1
21 | C[C@@H](CCCn1ccc2cc(-c3cnc(C(F)(F)F)c(N)n3)c(F)cc2c1=O)Nc1cn[nH]c(=O)c1C(F)(F)F [Example 316, (S)-6-(6-amino-5-(trifluoromethyl)pyrazin-2-yl)-7-fluoro-2-(4-((6-oxo-5-(trifluoromethyl)-1,6-dihydropyridazin-4-yl)amino)pentyl)isoquinolin-1(2H)-one] | 15.5
22 | COc1cc(-c2cc3ccn(CCC[C@H](C)Nc4cn[nH]c(=O)c4C(F)(F)F)c(=O)c3cc2F)ncc1C(F)(F)F [Example 331, (S)-7-fluoro-6-(4-methoxy-5-(trifluoromethyl)pyridin-2-yl)-2-(4-((6-oxo-5-(trifluoromethyl)-1,6-dihydropyridazin-4-yl)amino)pentyl)isoquinolin-1(2H)-one] | 78.1
23 | COc1cnc(-c2cc3ncn(CCC[C@H](C)Nc4cn[nH]c(=O)c4C(F)(F)F)c(=O)c3cc2F)nc1N1CC(C#N)C1 [Example 209] | 41.2
24 | Nc1nc(-c2cc3ccn(C[C@@H]4CCC[C@H](Nc5cn[nH]c(=O)c5C(F)(F)F)C4)c(=O)c3c(F)c2F)ncc1Cl [Example 243, 6-(4-amino-5-chloropyrimidin-2-yl)-7,8-difluoro-2-(((1R,3S)-3-((6-oxo-5-(trifluoromethyl)-1,6-dihydropyridazin-4-yl)amino)cyclohexyl)methyl)isoquinolin-1(2H)-one] | 2.98
25 | C[C@@H](CCCn1ccc2cc(-c3nc(N)ccc3C#N)c(F)cc2c1=O)Nc1cn[nH]c(=O)c1C(F)(F)F [Example 291, (S)-6-amino-2-(7-fluoro-1-oxo-2-(4-((6-oxo-5-(trifluoromethyl)-1,6-dihydropyridazin-4-yl)amino)pentyl)-1,2-dihydroisoquinolin-6-yl)nicotinonitrile] | 709
26 | C[C@@H](CCCn1ccc2cc(-c3cc(C(F)(F)F)c(N)cn3)c(F)cc2c1=O)Nc1cn[nH]c(=O)c1C(F)(F)F [Example 97, (S)-6-(5-amino-4-(trifluoromethyl)pyridin-2-yl)-7-fluoro-2-(4-((6-oxo-5-(trifluoromethyl)-1,6-dihydropyridazin-4-yl)amino)pentyl)isoquinolin-1(2H)-one] | 67.3
